Measured values reported in ChEMBL document CHEMBL2169756, “Recent results in protein kinase inhibition for tropical diseases” (Bioorg Med Chem Lett, 2012).
≈ marks a conversion by molar mass, not a printed value.

Assays:
[1] = Selectivity ratio of cytotoxicity for […] to IC50 for Mycobacterium tuberculosis H37Rv; assay type: cell-based
[2] = test system: Mycobacterium tuberculosis; experiment: Antitubercular activity against Mycobacterium tuberculosis H37Rv by high throughput assay; assay type: functional
[3] = Inhibition of Plasmodium falciparum MPK
Cdc2-related kinase [4] = biological target: T1, Cdc2-related kinase (Leishmania major, UniProt O96526); experiment: Inhibition of Leishmania major CRK3 expressed in Escherichia coli BL21 (DE3) using 5FAM-GGGRSPGRRRRK-OH as substrate after 60 mins by IMAP assay
T1 sequence (O96526 whole entry): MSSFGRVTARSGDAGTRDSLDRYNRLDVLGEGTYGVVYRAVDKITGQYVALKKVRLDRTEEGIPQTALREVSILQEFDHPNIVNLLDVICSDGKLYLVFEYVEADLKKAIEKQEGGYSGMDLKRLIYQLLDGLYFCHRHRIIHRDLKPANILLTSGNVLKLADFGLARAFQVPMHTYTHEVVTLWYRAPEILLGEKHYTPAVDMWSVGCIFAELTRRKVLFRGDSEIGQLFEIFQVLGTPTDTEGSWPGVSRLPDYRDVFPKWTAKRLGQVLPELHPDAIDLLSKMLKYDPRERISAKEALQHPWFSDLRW

[5] = biological target: T2, Calcium-dependent protein kinase 4 (Plasmodium falciparum (isolate 3D7), UniProt Q8IBS5); experiment: Inhibition of CDPK4 in Plasmodium falciparum 3D7 microgametes
T2 sequence (Q8IBS5 whole entry): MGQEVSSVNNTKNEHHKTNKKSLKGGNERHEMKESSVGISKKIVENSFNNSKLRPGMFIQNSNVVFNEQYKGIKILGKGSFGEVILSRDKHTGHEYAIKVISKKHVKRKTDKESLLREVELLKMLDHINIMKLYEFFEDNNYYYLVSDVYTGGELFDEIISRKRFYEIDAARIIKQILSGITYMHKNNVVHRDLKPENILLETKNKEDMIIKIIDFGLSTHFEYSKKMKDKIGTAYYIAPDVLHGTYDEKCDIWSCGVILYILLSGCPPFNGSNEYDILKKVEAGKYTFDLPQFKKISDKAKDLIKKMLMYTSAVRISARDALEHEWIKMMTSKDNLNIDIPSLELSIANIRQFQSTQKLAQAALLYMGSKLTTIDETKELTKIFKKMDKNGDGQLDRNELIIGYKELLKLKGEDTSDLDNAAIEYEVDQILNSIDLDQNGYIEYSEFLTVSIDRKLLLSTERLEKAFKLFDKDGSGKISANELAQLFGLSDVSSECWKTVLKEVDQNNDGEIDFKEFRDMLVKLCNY

[6] = biological target: cGMP-dependent protein kinase (Plasmodium falciparum, UniProt W7JX98); experiment: Inhibition of PKG in Plasmodium falciparum 3D7 microgametes
[7] = biological target: Cyclin-dependent kinase 7 (Homo sapiens, UniProt P50613); experiment: Inhibition of human CDK7
Plasmodium falciparum = experiment: Antimalarial activity against Plasmodium falciparum; assay type: functional, organism-based
[8] = biological target: Cyclin-dependent kinase 6 (Homo sapiens, UniProt Q00534); experiment: Inhibition of human CDK6
[9] = biological target: Cyclin-dependent kinase 2 (Homo sapiens, UniProt P24941); experiment: Inhibition of human CDK2
[10] = biological target: Cyclin-dependent kinase 1 (Homo sapiens, UniProt P06493); experiment: Inhibition of human CDK1
Leishmania donovani [11] = experiment: Antileishmanial activity against Leishmania donovani MHOM/SD/62/1SCL2D amastigotes after 72 hrs by resazurin reduction assay; assay type: functional, organism-based
[12] = test system: Trypanosoma brucei brucei; experiment: Antitrypanosomal activity against bloodstream form of Trypanosoma brucei brucei 427 after 72 hrs by resazurin microplate assay; assay type: functional, organism-based; settings: Trypanosoma brucei, 427, 72 h
Leishmania donovani [13] = experiment: Antileishmanial activity against Leishmania donovani MHOM/SD/62/1SCL2D promastigotes after 72 hrs by resazurin reduction assay; assay type: functional, organism-based
[14] = test system: Trypanosoma brucei brucei; experiment: Antitrypanosomal activity against procyclic Trypanosoma brucei brucei 29-13 after 72 hrs by resazurin microplate assay; assay type: functional, organism-based; settings: 29-13, 72 h
Trypanosoma brucei = experiment: Antitrypanosomal activity against Trypanosoma brucei infected in Swiss Webster mouse assessed as cure rate at 20 mg/kg, ip bid administered 4 days post infection; assay type: functional; settings: route intraperitoneal
Leishmania major = experiment: Antileishmanial activity against Leishmania major promastigotes; assay type: functional, organism-based
Cdc2-related kinase [15] = biological target: T1, Cdc2-related kinase; experiment: Inhibition of Leishmania major CRK3 expressed in Escherichia coli BL21 (DE3) after 30 mins by autoradiography
Toxoplasma gondii = experiment: Antiprotozoal activity against Toxoplasma gondii expressing low level of ROP18 infected in human HFF cells; assay type: functional, organism-based

Sequence of cGMP-dependent protein kinase (W7JX98 whole entry): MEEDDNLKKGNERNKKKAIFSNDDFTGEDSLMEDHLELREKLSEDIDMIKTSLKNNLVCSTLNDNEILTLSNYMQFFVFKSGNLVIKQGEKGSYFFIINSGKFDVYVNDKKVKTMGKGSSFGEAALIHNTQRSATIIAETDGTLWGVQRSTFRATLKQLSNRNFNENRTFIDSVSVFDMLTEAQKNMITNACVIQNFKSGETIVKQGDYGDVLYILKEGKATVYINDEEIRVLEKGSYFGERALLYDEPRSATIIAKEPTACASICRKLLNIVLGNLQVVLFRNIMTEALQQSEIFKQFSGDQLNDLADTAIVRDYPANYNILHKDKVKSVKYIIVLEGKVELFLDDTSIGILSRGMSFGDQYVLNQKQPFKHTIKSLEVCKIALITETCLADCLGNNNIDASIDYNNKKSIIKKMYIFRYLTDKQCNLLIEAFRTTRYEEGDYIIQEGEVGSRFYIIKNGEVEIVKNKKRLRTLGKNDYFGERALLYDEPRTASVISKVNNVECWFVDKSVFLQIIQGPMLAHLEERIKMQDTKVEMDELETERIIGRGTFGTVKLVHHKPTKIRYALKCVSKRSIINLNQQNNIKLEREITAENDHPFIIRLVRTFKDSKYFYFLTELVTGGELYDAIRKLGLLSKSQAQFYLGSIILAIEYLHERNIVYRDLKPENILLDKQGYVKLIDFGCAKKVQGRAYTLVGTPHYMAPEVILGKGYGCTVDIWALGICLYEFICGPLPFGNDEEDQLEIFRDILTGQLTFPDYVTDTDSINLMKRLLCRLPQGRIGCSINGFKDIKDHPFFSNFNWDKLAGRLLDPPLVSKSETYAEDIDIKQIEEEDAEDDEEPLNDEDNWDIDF
Sequence of Cyclin-dependent kinase 1 (P06493 whole entry): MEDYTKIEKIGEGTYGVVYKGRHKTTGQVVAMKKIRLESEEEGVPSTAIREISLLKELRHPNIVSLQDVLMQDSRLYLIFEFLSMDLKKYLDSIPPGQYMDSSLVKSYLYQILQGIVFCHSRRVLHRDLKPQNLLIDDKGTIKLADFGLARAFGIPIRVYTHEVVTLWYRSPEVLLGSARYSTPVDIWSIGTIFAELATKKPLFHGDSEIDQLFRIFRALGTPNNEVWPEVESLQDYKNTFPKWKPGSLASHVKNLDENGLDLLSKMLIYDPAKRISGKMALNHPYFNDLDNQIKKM
Sequence of Cyclin-dependent kinase 7 (P50613 whole entry): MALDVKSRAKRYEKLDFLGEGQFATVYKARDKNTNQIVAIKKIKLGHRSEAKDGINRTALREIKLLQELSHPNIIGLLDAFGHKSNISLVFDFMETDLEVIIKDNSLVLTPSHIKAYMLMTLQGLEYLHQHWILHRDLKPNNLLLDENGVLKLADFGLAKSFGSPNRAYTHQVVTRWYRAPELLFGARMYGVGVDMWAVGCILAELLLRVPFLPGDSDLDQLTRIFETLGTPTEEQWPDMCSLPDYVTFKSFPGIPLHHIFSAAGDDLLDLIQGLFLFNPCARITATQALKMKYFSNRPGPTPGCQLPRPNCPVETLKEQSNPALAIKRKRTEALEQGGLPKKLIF
Sequence of Cyclin-dependent kinase 6 (Q00534 whole entry): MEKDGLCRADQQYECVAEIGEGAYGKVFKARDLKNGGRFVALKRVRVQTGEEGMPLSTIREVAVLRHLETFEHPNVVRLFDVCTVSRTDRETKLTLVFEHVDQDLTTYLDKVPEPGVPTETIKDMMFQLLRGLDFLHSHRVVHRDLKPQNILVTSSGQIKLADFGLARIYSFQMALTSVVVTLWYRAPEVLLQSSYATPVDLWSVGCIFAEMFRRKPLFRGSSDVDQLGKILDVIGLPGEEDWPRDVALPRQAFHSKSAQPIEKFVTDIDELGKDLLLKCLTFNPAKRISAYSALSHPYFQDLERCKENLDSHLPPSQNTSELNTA

O=C(Nc1nnc(-c2ccco2)o1)c1ccc(Oc2ccccc2)cc1
selectivity ratio [1]: > 75
IC90 [2]: < 0.2 µg/mL

O=S(=O)(Nc1ccccc1)c1cc(Cl)sc1Cl
IC50 [3]: 15000 nM

CCN(Cc1ccc(/C=C2\C(=O)Nc3ccccc32)o1)S(C)(=O)=O
IC50 (Cdc2-related kinase [4]): 510 nM

Cc1cc(C)cc(-c2ccc3nc(NC(=O)C4CCCCCC4)n(C)c3c2)c1
IC50 (Cdc2-related kinase [4]): 5 nM

CC(C)(C)n1nc(-c2ccc3ccccc3c2)c2c(N)ncnc21
IC50 [5]: 177 nM

Cc1cccc(-c2ccc3nc(NC(=O)C4CCCCC4)nn3c2)c1
IC50 (Cdc2-related kinase [4]): 60 nM

Cc1cc(C)cc(-c2ccc3nc(NC(=O)C4CCCCC4)nn3c2)c1
IC50 (Cdc2-related kinase [4]): 20 nM

Cc1ccc(NC(=O)Nc2ccnc(-c3cccnc3)n2)cc1
IC50 (Cdc2-related kinase [4]): 1500 nM

CC(=O)c1cccc(-c2cnn3ccc(Nc4ccc(N5CCOCC5)cc4)nc23)c1
IC50 (Cdc2-related kinase [4]): 260 nM

O=C(OCn1nnc2ccccc2c1=O)c1ccccc1
selectivity ratio [1]: > 28
IC90 [2]: 1.4 µg/mL (≈ 4.98 µM)

COc1cc(-c2ccc3nc(NC(=O)C4CCCCC4)nn3c2)ccc1O
IC50 (Cdc2-related kinase [4]): 240 nM

CN1CCC(c2cc(-c3ccncc3)c(-c3ccc(F)cc3)[nH]2)CC1
IC50 [6]: 8 nM

O=C(CBr)N(c1ccccc1)S(=O)(=O)c1cc(Cl)sc1Cl
IC50 [7]: > 20000 nM
IC50 (Plasmodium falciparum): 17000 nM
IC50 [8]: > 20000 nM
IC50 [9]: > 20000 nM
IC50 [3]: 600 nM
IC50 [10]: > 20000 nM

COc1ccccc1C(=O)c1cnc(NC2CCN(C(=O)Nc3ccccc3)CC2)nc1N
IC50 (Leishmania donovani [11]): 1000 nM
IC50 [12]: 70 nM
IC50 (Leishmania donovani [13]): 1000 nM
IC50 [14]: 70 nM
Activity (Trypanosoma brucei): 100%

COc1ccc(-n2nnc3c(N4CCCC(O)C4)nc(CC4CCCCC4)nc32)cc1 (centres undefined)
IC50 (Leishmania major): 8600 nM
IC50 (Cdc2-related kinase [15]): 5300 nM

Cn1c(=O)c(/C=C/c2ccc3c(c2)OCO3)nc2ccccc21
IC50 (Toxoplasma gondii): 2 nM

Cc1ccc(N(C(=O)CCl)S(=O)(=O)c2cc(Cl)sc2Cl)cc1
IC50 [3]: 127000 nM

Oc1ccccc1-c1nc(NCc2cccnc2)c2ccccc2n1
IC50 (Cdc2-related kinase [4]): 11000 nM

COc1ccccc1-c1cnn2c(Nc3cccc(Cl)c3)cc(C)nc12
selectivity ratio [1]: 19
IC90 [2]: 1.7 µg/mL (≈ 4.66 µM)

CC(C)(C)c1ccc(C(=O)Nc2nnc(-c3cccnc3)o2)cc1
selectivity ratio [1]: > 48
IC90 [2]: 0.84 µg/mL (≈ 2.61 µM)
